# Source: patent US11034839B2, “Compounds, linked with haptens, for the detection of senescent cells” (THE UNIVERSITY OF MANCHESTER, priority 2016, dated 2021)
# Assays:
# [1] = test system: lipofuscin rich senescent cells, induced Saos2-p21WAF1/Cip1 Tet-ON cells; assay: Immunohistochemistry staining in induced Saos2-p21WAF1/Cip1 Tet-ON cellular system; assay type: cell-based, human; settings: FIG. 13
# Method: • 1. Compound (LG13) • 2. 100% ethanol (100% EtOH) • 3. Parafilm • 4. Fritted glass filter of medium porosity • 5. Airtight Dye Container 2.2.2 General Procedure: • 1. Dissolve 40 mg of the compound (LG13) in 7.4 ml 100% EtOH in a glass beaker and cover it with parafilm. • 2. Incubate at 56° C. in a waterbath for 120 min until the compound is completely dissolved. 2.3. General Method for Compound (LG13) Staining 2.3.1 Materials: • 1. Xylene • 2. […] Syringe • 4. 13 mm filter, membrane 0.22 μm • 5. Soft paper (dry or dipped in ethanol) • 6. Anti-biotin antibody ([Hyb-8] ab201341, Abcam) • 7. Ultravision Quanto Detection System HRP DAB kit (Cat no: TL-125-QHD) • 8. Glycerol (Sigma-Aldrich) • 9. Tris Buffered Saline (TBS; 10×): 1.5 M NaCl, 0.1 M Tris-HCl, pH 7.4. Store at 4° C. • 10. 0.5% Triton X/TBS: 0.5 ml Triton X diluted in 99.5 ml TBS • 11. Mounting media Glycergel (DakoCytomation). • 12. Light Microscope • 13. Anti-p21^WAF1/Cip1 mouse primary antibody [(F-5)(sc-6246) Santa-Cruz] • 14. Anti-p16^INK4A mouse primary antibody [(sc-74401) Santa-Cruz] • 15. Anti-Ki67 rabbit polyclonal antibody [ab16667, Abcam] • 16. Secondary goat anti-mouse antibody Alexa Fluor 568 conjugated [Thermo Fisher Scientific (Cat no: A-11004)] • 17. DAPI (4′,6-Diamidino-2-Phenylindole, Dihydrochloride) [Thermo Fisher Scientific (Cat no: D1306)] • 18. Fluorescence microscope 2.3.2 General Procedures: 2.3.2.1 General Staining Protocol for Cells Mounted on Coverslips • 1. Wash ×1 in TBS for 5 min at RT. • 2. Block the endogenous hydrogen peroxidase, using the UltraVision Hydrogen Peroxide Block included in the Ultravision Quanto Detection System HRP DAB kit (Cat no: TL-125-QHD) for 10 min at RT and in dark conditions. • 3. Wash ×2 in TBS for 30 sec and ×1 for 5 min at RT. • 4. Wash ×1 in EtOH 50% for 5 min at RT. • 5. Wash ×1 EtOH 70% for 5 min at RT. • 6. […] The staining reaction is monitored under the light microscope until detection of the signal (average time 5-8 min). • 8. […] The staining reaction is monitored under the light microscope until detection of the dark brown signal (average time 30 sec-1 min) at RT 1. • 20. […]
# [2] = test system: senescent cells in irradiated human laryngeal tumors and mouse lung adenomas; assay: Histochemical staining of paraffin embedded, formalin fixed tissue sections (same method as for SBB); settings: FFPE sections of irradiated human laryngeal tumors and mouse lung adenomas; dye in 70% ethanol, 10 min
# Text: In the following comparative example 1 the histochemical dye SBB was used to detect senescent cells in tissue sections by the histochemical method previously described [Georgakopoulou et al, Aging (Albany N.Y.) 2013].
# Tissue sections were obtained from paraffin embedded, formalin fixed: (a) irradiated human laryngeal tumors and (b) mouse lung adenomas, with established presence of senescent cells. Subsequently, they were immobilized on glass microscopy slides by standard procedures and processed as follows: • a. Deparaffinization for 5 min at room temperature in xylene. • b. Gradual rehydration in solutions of descending concentration of ethanol (100%, 80%, 70%, 50% v/v) and finally in TBS (Tris-buffered saline) or PBS (Phosphate-buffered saline) solution. • c. The SBB dye was diluted in 70% ethanol (v/v), filtered and then applied on tissue sections for 10 min. • d. Quick wash in 50% (v/v) ethanol. • e. Transfer and wash in TBS or PBS solution. • f. Counterstain with Hematoxylin or Nuclear Fast Red, followed by mounting with glycerol and sealed with a cover slip. • g. Microscopy observation. […]
# [3] = test system: HeLa cancer cells and near normal Li-Fraumeni fibroblasts; assay: False-positive studies (cell confluency, serum starvation); assay type: cell-based, human; settings: compared with SA-b-gal, FIGS. 17 and 18
# Text: The in vitro models comprised seven cellular systems. […] The same cellular system was used at early passages that underwent SIPS upon y-irradiation and was compared in relation to non-irradiated counterparts. Another set of models comprised two inducible Saos2 Tet-ON osteosarcoma cell lines carrying p53 and p21^WAF1/Cip1, respectively, two well established effectors of senescence (Georgakopoulou et al., 2013; Galanos et al., 2016). Finally, the U2OS-E2F1 ER, U205-Cdt1 Tet-ON and HBECs-Cdc6 Tet-ON inducible systems that undergo SIPS due to oncogenic stress signals were also utilized (Petrakis et al., 2016; Liontos et al., 2007; Liontos et al., 2009). Parental cell lines were obtained either directly from ATCC or from collaborating laboratories that generated them. In addition, the human cancer cell line HeLa and near normal Li-Fraumeni fibroblasts (Galanos et al., 2016) were also employed as control cell lines for the specificity of staining of the SBB compounds.
# [4] = test system: senescent cells in biological systems with established senescence; assay: Quantitative analysis and concordance of SA-b-gal, SBB and GL13 staining; settings: FIG. 15
# Ethanol solubility = assay type: physicochemical
# lipofuscin = settings: Georgakopoulou et al., 2013; cited from earlier work
# [5] = test system: senescent cells (lipofuscin); settings: Georgakopoulou et al, 2013; cited from earlier work
compound,measurement,setting,value
"CC1(CCOC(=O)CCCC[C@H]2SC[C@H]3NC(=O)N[C@H]32)Nc2cccc3c(/N=N/c4ccc(/N=N/c5ccccc5)c5ccccc45)ccc(c23)N1 (stereo partly drawn) [LG39, 2-(2-Methyl-6-((E)-(4-((E)-phenyldiazenyl)naphthalen-1-yl)diazenyl)-2,3-dihydro-1H-perimidin-2-yl)ethyl 5-((3aR,4R,6aS)-2-oxohexahydro-1H-thieno[3,4-d]imidazol-4-yl)pentanoate]",detection of lipofuscin rich senescent cells by immunohistochemistry staining,[1],detect robustly lipofuscin rich senescent cells
"CC1(C)Nc2cccc3c(/N=N/c4ccc(/N=N/c5ccc(CCOC(=O)CCCC[C@H]6SC[C@H]7NC(=O)N[C@H]76)cc5)c5ccccc45)ccc(c23)N1 [LG52, 4-((E)-(4-((E)-(2,2-Dimethyl-2,3-dihydro-1H-perimidin-6-yl)diazenyl)naphthalen-1-yl)diazenyl)phenethyl 5-((3aR,4R,6aS)-2-oxohexahydro-1H-thieno[3,4-d]imidazol-4-yl)pentanoate]",detection of lipofuscin rich senescent cells by immunohistochemistry staining,[1],detect robustly lipofuscin rich senescent cells
"CC1(CCCOC(=O)CCCC[C@H]2SC[C@H]3NC(=O)N[C@H]32)Nc2cccc3c(/N=N/c4ccc(/N=N/c5ccccc5)c5ccccc45)ccc(c23)N1 (stereo partly drawn) [LG56, 3-(2-Methyl-6-((E)-(4-((E)-phenyldiazenyl)naphthalen-1-yl)diazenyl)-2,3-dihydro-1H-perimidin-2-yl)propyl 5-((3aR,4R,6aS)-2-oxohexahydro-1H-thieno[3,4-d]imidazol-4-yl)pentanoate]",detection of lipofuscin rich senescent cells by immunohistochemistry staining,[1],detect robustly lipofuscin rich senescent cells
"CC1(C)Nc2cccc3c(/N=N/c4ccc(/N=N/c5ccccc5)c5ccccc45)ccc(c23)N1 [SBB, Sudan Black B]",histochemical staining of senescent cells,[2],senescent cells are clearly stained
same,false-positive staining due to serum starvation and cell confluency,[3],deprived of the false-positive staining disadvantages
same,"specificity compared among SA-b-gal, SBB and GL13 staining",[4],concordance of specificity
same,ethanol solubility,Ethanol solubility,ethanol solubility problems
same,effect of staining on lipofuscin autofluorescence,lipofuscin,quenched
same,selectivity of lipofuscin stain for senescent cells,[5],highly selective for the detection of senescent cells
